# Test results reported in paper PMC12669040, “Tumour-specific STING agonist synthesis via a two-component prodrug system” (Nature Chemistry, 2025).
# Where “and” joins values, the source holds several entries; their conditions need not be identical. Equal values may be shown once.
# Assays:
# [1] = Colorimetric alkylation rate constant assay with thiol N1; format: physicochemical; conditions: for remaining [A]: N1 from calibration curve (N1 in uM); for remaining [A] / remaining [B]: in µM
# [2] = Colorimetric alkylation rate constant assay with TNB^2− as non-specific thiol; format: physicochemical; parameters: second-order: unit not given here; conditions: for remaining [B]: in µM
# [3] = Time 2891 sec, [B]0 = 250, Replicates 1-3
# [4] = Time 3071 sec, [B]0 = 250, Replicates 1-3
# [5] = Time 3252 sec, [B]0 = 250, Replicates 1-3
# [6] = Time 3433 sec, [B]0 = 250, Replicates 1-3
# [7] = Time 3613 sec, [B]0 = 250, Replicates 1-3
structure (smiles),measurement,setting,value
COc1cc2sc(C(=O)CCC(=O)O)cc2cc1NC(=O)CCl [Compound E2],remaining [A],"[1]; Replicate 1, time 576 sec",17.5091
same,remaining [B],"[1]; Replicate 1, time 576 sec, [B]0 = 250",163.389
same,second-order,"[1]; Replicate 1, time 576 sec, second-order plot value",0.009306
same,remaining [A],"[1]; Replicate 1, time 606 sec",16.6256
same,remaining [B],"[1]; Replicate 1, time 606 sec, [B]0 = 250",162.506
same,second-order,"[1]; Replicate 1, time 606 sec, second-order plot value",0.009623
same,remaining [A],"[1]; Replicate 2, time 576 sec",15.4999
same,remaining [B],"[1]; Replicate 2, time 576 sec, [B]0=250",162.358
same,second-order,"[1]; Replicate 2, time 576 sec, second-order plot value",0.009966
same,remaining [A],"[1]; Replicate 2, time 606 sec",14.5929
same,remaining [B],"[1]; Replicate 2, time 606 sec, [B]0=250",161.451
same,second-order,"[1]; Replicate 2, time 606 sec, second-order plot value",0.01034
same,remaining [A],"[1]; Replicate 3, time 576 sec",17.4849
same,remaining [B],"[1]; Replicate 3, time 576 sec, [B]0=250",162.938
same,second-order,"[1]; Replicate 3, time 576 sec, second-order plot value",0.009352
same,remaining [A],"[1]; Replicate 3, time 606 sec",16.538
same,remaining [B],"[1]; Replicate 3, time 606 sec, [B]0=250",161.991
same,second-order,"[1]; Replicate 3, time 606 sec, second-order plot value",0.009694
same,remaining [B],"[1]; time 0 sec, [B]0 = 250, replicates 1-3",219.942 and 218.28 and 218.112
same,second-order,"[1]; time 0 sec, replicates 1-3",0.001589 and 0.00145 and 0.001561
same,remaining [B],"[1]; time 30 sec, [B]0 = 250, replicates 1-3",211.555 and 211.839 and 210.232
same,second-order,"[1]; time 30 sec, replicates 1-3",0.002137 and 0.002004 and 0.001994
same,remaining [B],"[1]; time 60 sec, [B]0 = 250, replicates 1-3",204.386 and 206.139 and 202.834
same,second-order,"[1]; time 60 sec, replicates 1-3",0.002738 and 0.002556 and 0.002427
same,remaining [B],"[1]; time 91 sec, [B]0 = 250, replicates 1-3",199.029 and 200.952 and 197.251
same,second-order,"[1]; time 91 sec, replicates 1-3",0.003264 and 0.003029 and 0.002869
same,remaining [B],"[1]; time 121 sec, [B]0 = 250, replicates 1-3",194.402 and 196.363 and 192.97
same,second-order,"[1]; time 121 sec, replicates 1-3",0.003719 and 0.003488 and 0.003307
same,remaining [B],"[1]; time 151 sec, [B]0 = 250, replicates 1-3",190.452 and 192.373 and 188.804
same,second-order,"[1]; time 151 sec, replicates 1-3",0.004215 and 0.003925 and 0.003731
same,remaining [B],"[1]; time 182 sec, [B]0 = 250, replicates 1-3",186.908 and 188.84 and 185.431
same,second-order,"[1]; time 182 sec, replicates 1-3",0.004663 and 0.00436 and 0.004145
same,remaining [B],"[1]; time 212 sec, [B]0 = 250, replicates 1-3",183.932 and 185.762 and 182.511
same,second-order,"[1]; time 212 sec, replicates 1-3",0.005091 and 0.004762 and 0.004542
same,remaining [B],"[1]; time 242 sec, [B]0 = 250, replicates 1-3",181.254 and 182.541 and 179.734
same,second-order,"[1]; time 242 sec, replicates 1-3",0.005539 and 0.005157 and 0.005
same,remaining [B],"[1]; time 273 sec, [B]0 = 250, replicates 1-3",178.711 and 180.147 and 177.239
same,second-order,"[1]; time 273 sec, replicates 1-3",0.005981 and 0.005566 and 0.005372
same,remaining [B],"[1]; time 303 sec, [B]0 = 250, replicates 1-3",176.384 and 177.582 and 175.227
same,second-order,"[1]; time 303 sec, replicates 1-3",0.00637 and 0.005975 and 0.005807
same,remaining [B],"[1]; time 333 sec, [B]0 = 250, replicates 1-3",174.382 and 175.53 and 173.129
same,second-order,"[1]; time 333 sec, replicates 1-3",0.006811 and 0.006357 and 0.006186
same,remaining [B],"[1]; time 364 sec, [B]0 = 250, replicates 1-3",172.461 and 173.364 and 171.287
same,second-order,"[1]; time 364 sec, replicates 1-3",0.007233 and 0.006753 and 0.006621
same,remaining [B],"[1]; time 394 sec, [B]0 = 250, replicates 1-3",170.756 and 171.54 and 169.7
same,second-order,"[1]; time 394 sec, replicates 1-3",0.007627 and 0.007133 and 0.007019
same,remaining [B],"[1]; time 424 sec, [B]0 = 250, replicates 1-3",169.187 and 169.802 and 168.141
same,second-order,"[1]; time 424 sec, replicates 1-3",0.008046 and 0.007509 and 0.00743
same,remaining [B],"[1]; time 454 sec, [B]0 = 250, replicates 1-3",167.699 and 168.519 and 166.865
same,second-order,"[1]; time 454 sec, replicates 1-3",0.008415 and 0.007894 and 0.007756
same,remaining [B],"[1]; time 485 sec, [B]0 = 250, replicates 1-3",166.401 and 167.208 and 165.59
same,second-order,"[1]; time 485 sec, replicates 1-3",0.008811 and 0.008254 and 0.008111
same,remaining [B],"[1]; time 515 sec, [B]0 = 250, replicates 1-3",165.237 and 165.84 and 164.371
same,second-order,"[1]; time 515 sec, replicates 1-3",0.009219 and 0.008598 and 0.00851
same,remaining [B],"[1]; time 545 sec, [B]0 = 250, replicates 1-3",164.02 and 164.7 and 163.322
same,second-order,"[1]; time 545 sec, replicates 1-3",0.009596 and 0.008984 and 0.008865
same,remaining [B],"[2]; Replicate 1, 723 sec, [B]0 = 250",243.335
same,remaining [B],"[2]; Replicate 1, 903 sec, [B]0 = 250",243.032
same,remaining [B],"[2]; Replicate 1, 1084 sec, [B]0 = 250",242.818
same,remaining [B],"[2]; Replicate 1, 1265 sec, [B]0 = 250",242.415
same,remaining [B],"[2]; Replicate 1, 1445 sec, [B]0 = 250",242.176
same,remaining [B],"[2]; Replicate 1, 1626 sec, [B]0 = 250",241.949
same,remaining [B],"[2]; Replicate 1, 1806 sec, [B]0 = 250",241.659
same,remaining [B],"[2]; Replicate 1, 1988 sec, [B]0 = 250",241.394
same,remaining [B],"[2]; Replicate 1, 2168 sec, [B]0 = 250",241.004
same,remaining [B],"[2]; Replicate 1, 2349 sec, [B]0 = 250",240.752
same,remaining [B],"[2]; Replicate 1, 2530 sec, [B]0 = 250",240.437
same,remaining [B],"[2]; Replicate 1, 2710 sec, [B]0 = 250",240.323
same,remaining [B],"[2]; Replicate 2, 542 sec, [B]0=250",243.63
same,remaining [B],"[2]; Replicate 2, 723 sec, [B]0=250",243.24
same,remaining [B],"[2]; Replicate 2, 903 sec, [B]0=250",242.962
same,remaining [B],"[2]; Replicate 2, 1084 sec, [B]0=250",242.698
same,remaining [B],"[2]; Replicate 2, 1265 sec, [B]0=250",242.446
same,remaining [B],"[2]; Replicate 2, 1445 sec, [B]0=250",242.169
same,remaining [B],"[2]; Replicate 2, 1626 sec, [B]0=250",241.929
same,remaining [B],"[2]; Replicate 2, 1806 sec, [B]0=250",241.639
same,remaining [B],"[2]; Replicate 2, 1988 sec, [B]0=250",241.4
same,remaining [B],"[2]; Replicate 2, 2168 sec, [B]0=250",241.098
same,remaining [B],"[2]; Replicate 2, 2349 sec, [B]0=250",240.858
same,remaining [B],"[2]; Replicate 2, 2530 sec, [B]0=250",240.593
same,remaining [B],"[2]; Replicate 2, 2710 sec, [B]0=250",240.316
same,remaining [B],"[2]; Replicate 3, 723 sec, [B]0=250",242.314
same,remaining [B],"[2]; Replicate 3, 903 sec, [B]0=250",241.999
same,remaining [B],"[2]; Replicate 3, 1084 sec, [B]0=250",241.659
same,remaining [B],"[2]; Replicate 3, 1265 sec, [B]0=250",241.344
same,remaining [B],"[2]; Replicate 3, 1445 sec, [B]0=250",241.041
same,remaining [B],"[2]; Replicate 3, 1626 sec, [B]0=250",240.789
same,remaining [B],"[2]; Replicate 3, 1806 sec, [B]0=250",240.5
same,remaining [B],"[2]; Replicate 3, 1988 sec, [B]0=250",240.273
same,remaining [B],"[2]; Replicate 3, 2168 sec, [B]0=250",240.008
same,remaining [B],"[2]; Replicate 3, 2349 sec, [B]0=250",239.706
same,remaining [B],"[2]; Replicate 3, 2530 sec, [B]0=250",239.492
same,remaining [B],"[2]; Replicate 3, 2710 sec, [B]0=250",239.164
same,second-order,[2]; [3],0.0004296 and 0.0004811 and 0.0004316
same,remaining [B],[2]; [3],238.912 and 239.97 and 240.014
same,second-order,[2]; [4],0.0004407 and 0.0004923 and 0.0004463
same,remaining [B],[2]; [4],238.673 and 239.655 and 239.774
same,second-order,[2]; [5],0.0004524 and 0.0005067 and 0.0004586
same,remaining [B],[2]; [5],238.37 and 239.391 and 239.522
same,second-order,[2]; [6],0.0004672 and 0.0005187 and 0.0004692
same,remaining [B],[2]; [6],238.118 and 239.164 and 239.207
same,second-order,[2]; [7],0.0004772 and 0.0005343 and 0.0004876
same,remaining [B],[2]; [7],237.79
same,second-order,"[2]; Time 3794 sec, [B]0 = 250, Replicates 1-3",0.0004927 and 0.000547 and 0.0004971
same,second-order,"[2]; Time 3974 sec, [B]0 = 250, Replicates 1-3",0.0005034 and 0.0005579 and 0.0005103
same,second-order,"[2]; Time 4155 sec, [B]0 = 250, Replicates 1-3",0.0005154 and 0.0005714 and 0.0005211
same,second-order,"[2]; Time 4336 sec, [B]0 = 250, Replicates 1-3",0.0005298 and 0.0005836 and 0.0005397
same,second-order,"[2]; Time 4516 sec, [B]0 = 250, Replicates 1-3",0.0005443 and 0.0005965 and 0.0005531
same,second-order,"[2]; Time 4697 sec, [B]0 = 250, Replicates 1-3",0.0005528 and 0.0006095 and 0.0005659
same,second-order,"[2]; Time 4878 sec, [B]0 = 250, Replicates 1-3",0.0005674 and 0.0006188 and 0.0005756
same,second-order,"[2]; Time 5058 sec, [B]0 = 250, Replicates 1-3",0.0005809 and 0.0006349 and 0.000586
same,second-order,"[2]; Time 5239 sec, [B]0 = 250, Replicates 1-3",0.0005944 and 0.0006468 and 0.0006002
same,second-order,"[2]; Time 5419 sec, [B]0 = 250, Replicates 1-3",0.0006061 and 0.0006606 and 0.0006132
same,second-order,"[2]; Time 5600 sec, [B]0 = 250, Replicates 1-3",0.0006185 and 0.0006707 and 0.0006275
same,second-order,"[2]; Time 5781 sec, [B]0 = 250, Replicates 1-3",0.0006334 and 0.0006852 and 0.0006393
same,second-order,"[2]; Time 5961 sec, [B]0 = 250, Replicates 1-3",0.0006459 and 0.0007024 and 0.0006549
